The values below come from patent publication US20130149250A1, “HYPERPOLARIZED AGENTS FOR MRI CHARACTERIZATION OF REDOX SYSTEMS IN VIVO” (The Regents of the University of California, priority 2011, published 2013).

The test system of series [1] is normal mice. The series can be described thus: Dynamic 13C MR spectroscopy after injection of hyperpolarized probe in normal mice. The format is in vivo, mouse. The protocol:
(§1) The RF coil used in these experiments was a dual-tuned ^1H-^13C coil with a quadrature ^13C channel and linear ^1H channel construction used in ^13C mouse imaging studies. ^13C MRSI studies were carried out as previously published. 350 μl (mice) or 2 mL (rats) of a hyperpolarized 15 mM [1-^13C] DHA solution were injected similar to previously described methods for [1-^13C]pyruvate. Similar experiments were performed on a set of normal mice using hyperpolarized [1-^13C] Vitamin C at 50 mM.
Evidence of in vivo transformation was determining having obtained data validating hyperpolarized [1-^13C] DHA as a redox probe. The transport of DHA in vivo occurs by a mechanism analogous to that of glucose, by facilitated diffusion using GLUT1, GLUT3, and GLUT4. Since glucose is known to compete with the uptake of DHA, in vivo experiments were performed on animals (mice and rats) fasted overnight. […] Dynamic MRSI studies were carried out as previously published. 350 μl of a hyperpolarized 15 mM [1-^13C] DHA solution were injected similar to previously described methods for [1-^13C] pyruvate, in normal mice with a ^13C urea phantom present for chemical shift reference. In a separate set of normal mice, similar experiments were performed using hyperpolarized [1-^13C] Vitamin C at a slightly higher concentration, 50 mM. […] DHA in a normal mouse. The DHA resonance at 174 ppm reached a maximum at 19±1.7 secs post injection. […] Vitamin C in vivo. This chemical shift was confirmed both in vitro at neutral pH using ^13C urea as a reference, as well as in vivo with hyperpolarized [1-^13C] Vitamin C itself injected in a separate animal.

Series [2] concerns TRAMP tumors. In words: HP [1-13C] DHA 3D MRSI in TRAMP mice (Example 4). The format is in vivo, mouse. The source says:
Hyperpolarization and dissolution of [1-^13C] DHA: [1-^13C] DHA dimer was polarized and dissolved.

The nature of series [3]: 11.7 T NMR studies (T1 of hyperpolarized ascorbates). Format: physicochemical. Conditions: spin-lattice relaxation of C1 carbon at 11.7 T; mean±SD. As for the experimental part: NMR studies were performed on an 11.7 T Varian NOVA spectrometer (125 MHz ^13C, Varian Instruments) using a 10 mm ^15N/^31P/^13C broadband direct detect probe. Thermal and dynamic hyperpolarized spectra for [1-^13C] DHA and [1-^13C] Vitamin C were obtained as previously described, and used to calculate T1's and signal enhancements. For NMR studies of the reduction of [1-^13C] DHA to [1-^13C] Vitamin C, hyperpolarized [1-^13C] DHA was reacted with an excess of sodium cyanoborohydride (NaBH3CN).
(§2) In vitro methods to interrogate redox chemistry have relied on designer redox-sensitive fluorescent proteins (yellow- or green fluorescent protein) incorporating an artificial dithiol-disulfide pair, or on detection of ROS themselves via chemical switching. In general, fluorescent probes have limited clinical translation given poor tissue penetration; making MR-compatible hyperpolarized ^13C probes an attractive alternative. […] The material was polarized by using a DNP approach and dissolved with a hot water/EDTA solution, with T1's calculated as previously described. […] Vitamin C carbons are tabulated at both 11.7 T and 3 T, with the longest recorded T1 that of [1-^13C] […] Vitamin C were measured as 5.9±0.5% and 3.6±0.1% respectively, representing signal enhancements on the order of approximately 24,000 and 15,000-fold relative to thermal equilibrium at 3 T. […]

Series [4] relates to MCD mouse liver. The series can be described thus: HP DHA 13C MRSI of liver in methionine choline deficient (MCD) diet NAFLD mouse model. The format is in vivo. The protocol: Prior to and post diet, high-resolution T2 and fat-water imaging was conducted at 14 T using a Varian WB600 micro-imager and 40 mm 1H millipede coil (Varian Instruments, Palo Alto, Calif.). Lipid percentage maps were calculated from fat and water images acquired using a conventional spin-echo sequence using the Dixon method. 350 μL of hyperpolarized DHA was injected each mouse (n=4) at baseline and 2 weeks of MCD diet using a Hypersense (Oxford Instruments). 13C MRSI data was acquired using an EPSI readout, variable flip angle scheme, matrix size 16×8×8 and final voxel resolution of 6 mm isotropic on a 3 T GE MRI (GE Healthcare, Waukesha, Wis.) equipped with a multinuclear package and dual-tuned 1H-^13C imaging coil. […] Ratios of HP DHA and VitC were calculated from the peak integrals in 3D MRSI data. Mice were then sacrificed and liver tissue was sectioned for staining with hematoxylin and eosin (H&E, structure) and Oil Red (lipid presence). Livers of normal mice were used for histologic comparison.

The test system of series [5] is rat brains. The following applies: in vivo. The protocol:
as §1
(§3) Tissues with high exposure to environmental toxins, namely the liver, kidney and lungs, are known to be rich in GSH and were considered the most likely source for the hyperpolarized [1-^13C] Vitamin C signal observed in vivo. In addition, a contribution from highly glycolytic tissues was anticipated, given the rapid transport properties of dehydroascorbate. Analogous to experiments performed previously using hyperpolarized [1-^13C]pyruvate, 3D MRSI studies were conducted on a series of normal mice (n=3), TRAMP mice (n=3), and rats (n=3) using a dual-tuned RF coil.

Series [6] has as its system normal mice. Conditions: mouse, in vivo. The protocol:
as §1, §3

The subject of series [7] is TRAMP mice. The following applies: mouse, in vivo. As for the experimental part: as §1, §3
Series [8] can be described thus: DNP hyperpolarization (HyperSense, OX063 trityl radical): build-up and polarization. Conditions: for Percent Polarization: DNP, 15 mM OX063; for Percent Polarization / Buildup Constant: mean±SD; for Buildup Constant: solid-state build-up constant. The format is physicochemical.
Series [9] concerns TRAMP tumors. The following applies: TRAMP mice, PET 50 minutes post injection.
Description: FDG-PET: PET scans were performed on a small animal PET/CT scanner (Inveon, Siemens Healthcare, Malvern, Pa.). Mice were fasted overnight, anesthetized, and injected intravenously with 150-170 uCi FDG in 0.1-0.2 mL saline. PET images were acquired 50 minutes post injection in one 600 second frame. CT images were acquired in 120 projections of continuous rotation to cover 220° with x-ray tube operating at 80 kVp, 0.5 mA, and 175 ms exposure time. The matrix size of the reconstructed CT images was 512×512×662 with an isotropic voxel size of 0.191×0.191×0.191 mm^3 PET images were reconstructed using a manufacturer-provided ordered subsets expectation maximization (OS-EM) algorithm resulting in a 128×128×159 matrices with a voxel size of 0.776×0.776×0.796 mm^3 ROIs were drawn in both the tumors and surrounding tissue to calculate relative tumor signals.
Series [10] can be described thus: T1 studies of hyperpolarized ascorbates on a 3 T MRI scanner. The format is physicochemical. The following applies: spin-lattice relaxation of C1 carbon at 3 T; mean±SD. As for the experimental part:
as §1, §2

Molecules are shown by their SMILES. Entries after “also recorded” stand apart in the source; their conditions may differ.

As for `O=C1C(=O)[13C](=O)O[C@@H]1[C@@H](O)CO` [[1-^13C] DHA, [1-^13C] dehydroascorbate], the “time of maximum of DHA resonance (174 ppm) post injection” value in series [1] (mouse, in vivo) came out at 19 ± 1.7 s. Moreover, in series [1] (mouse, in vivo), the “time of maximum of metabolite resonance (177.8 ppm, [1-13C] Vitamin C)” value worked out at 29 ± 1.7 s. Also, the “Total HP 13C in tumors relative to surrounding tissue” value in series [2] (TRAMP mice) is listed as 2.1±0.4. Further, in [2] (TRAMP mice), the “tumor HP VitC/[VitC+DHA] relative to surrounding tissue” value turned out to be 7.0±2.3. Also, the “HP VitC (ratio of VitC to total HP signal)” value in [2] (TRAMP tumors (N=4)) is listed as 0.23±0.03; in [2] (benign prostate, P=0.001) it was 0.06±0.03; in series [2] (surrounding tissues, P=0.005), 0.05±0.02. In series [3], the “11.7T T1” value is 20.5 ± 0.9 s. Also, the values for the VitC/DHA ratio in series [4] (after 2 weeks on MCD diet) and in [4] (baseline) were 0.46±0.1 and 0.98±0.09, respectively. For the same compound, the “VitC/VitC+DHA” value in series [4] (after 2 weeks on MCD diet) was 0.30±0.5; in series [4] (baseline (normal liver)), 0.49±02. Moreover, the “decrease in the VitC/DHA ratio from baseline” value in [4] (after 2 weeks on MCD diet, P=0.005) is recorded as 92%. Further, the “decrease in the VitC/VitC+DHA ratio from baseline” value in [4] (after 2 weeks on MCD diet, P=0.01) amounted to 48%. Moreover, the “VitC/Total Carbon” value in [5] amounted to 0.51±0.1; in series [7], 0.29±0.09. Further, in series [6], the “Vitamin C signal” value was “no Vitamin C signal was observed”. Also, the “Percent Polarization” value in [8] was 5.9±0.5%. Further, in [8] (at 3 T), the “signal enhancement relative to thermal equilibrium” value is “approximately 24,000 fold”. Also, the “Buildup Constant” value in series [8] was determined as 1120 ± 50 s.
Consider `O=C[C@H]([18F])[C@@H](O)[C@H](O)[C@H](O)CO` [FDG, 2-18F-2-deoxy-D-glucose], for which the “18F signal in regions of tumor relative to surrounding regions” value in [9] is 6.8±3.6.
As to `O=[13C]1O[C@H]([C@@H](O)CO)C(O)=C1O` [[1-^13C] Vitamin C, [1-^13C] ascorbic acid], in [1] (50 mM hyperpolarized [1-13C] Vitamin C, normal mice), the “in vivo oxidation of hyperpolarized [1-13C] Vitamin C to [1-13C] DHA” value is “trace oxidation; also recorded: trace conversion”. Also, the “11.7T T1” value in [3] was determined as 16.0 ± 0.8 s. In series [8], the “Percent Polarization” value came out at 3.6±0.1% and the “Buildup Constant” value came out at 1756 ± 97 s. In addition, in series [10], the “3T T1” value worked out at 29.2 ± 2.5 s.
